Results: US4716225A, “Radioopaque sugar derivatives and a method of metabolic mapping using the same” (priority 1985, dated 1987)
Entries after “also recorded” stand apart in the source; their conditions may differ. Read-outs that look alike come from different tables or passages of the source.

Columns and labels:
[1] = test system: blood/brain barrier saturable carrier of glucose; settings: cited from earlier work
[2] = Observation of side effects after injection into mice, rats, and dogs; format: in vivo; settings: in the concentrations described
Procedure: This is the region associated with limb and tail movement in the dog. […] Thus, the accumulation can be made to be selective.
(§1) Gross Toxicology. In order to be economical with the product, the gross toxicology of 6-IG was first determined in mice and rats. Enough material was injected in a volume of 0.1 ml into the tail vein to raise the blood concentration to 10^-3, 10^-2, and 10^-1 M, (0.02-2.11 g/kg). As an osmotic control, equimolar amounts of α-D-galactopyranose were injected into age matched animals.
(§2) Mongrel dogs (40-50 lbs) were injected intravenously with a bolus of α-D-galactose sufficient to raise the blood concentration to a level of 10^-2 M. They were then required to walk from the animal facility to the CAT scanner, approximately 10 minutes, where they were anesthetized. Anesthesia was induced with thiamytal (lmg/kg) and the animal was intubated with a cuffed endotrachial tube. Following induction, anesthesia was maintained with a gaseous mixture of Halothane, nitrous oxide and oxygen.

[3] = Gross toxicology after intravenous (tail vein) injection in mice and rats; format: in vivo
Procedure: as §1
6-IG was injected intravenously into 20 g male mice and equivalent amounts of α-D-galactopyranose were injected into age-matched controls. […] Three days post-injection, the animals were killed by ether inhalation and autopsied.

brain [4] = assay: Feasibility calculation of brain concentration of 6-iodo-D-galactose; set-up: species or system human
Text: It appears feasible to achieve such concentrations in, for example, brain tissue, by administering a sufficient amount of 6-iodo-D-galactose to obtain an initial blood concentration of about 10^-2 M in the patient.
However, it is proposed to use 6-iodo-D-galactose or other such 2-, 5- or 6-substituted hexoses. […] But the uptake of galactose relative to 2-deoxyglucose is 31%. Therefore, it is estimated that the total brain concentration of 6-iodo-D-galactose is approximately 20%×0.31, or 6% of the initial blood concentration. When the initial blood concentration is 10^-2 M, final brain concentration would approximate 6×10^-4 M. To achieve this, it is necessary to inject approximately 15 grams of iodogalactose. [formula]
An adult has a blood volume of approximately 4-5 L, so to achieve the desired concentration of 10^-2 M (moles per liter) of 6-iodo-galactosewhose formula weight is 290 g/mole will require:
wt=(5 liter)(1 X10^-2 mole/liter)(290 g/mole)=14 g.
Thus, the criterion of having a brain concentration within the range of 10^-4 to 10^-3 M is met. Although this concentration is the lower limit of detection, it should not deleteriously affect the clarity of the brain CAT scan. […]

[5] = Observation of side effects after intravenous injection in dogs; format: in vivo, Mongrel dogs
Procedure: as §2
(§3) The time elapsed from injection to the start of the scan was approximately 1 hour. CAT scanning data were recorded on tape and served as a background control. Upon completion of scanning, the dog was recovered from anesthesia and returned to the animal facility, where routine care was resumed.
(§4) This procedure was repeated one day later; however, 6-IG was injected to an initial blood concentration of 10^-2 M. Nine days and 33 days following the injection, repeat scans were performed to ensure that the contrast medium had cleared.

brain [6] = assay: CAT scanning of dog brain after injection of contrast medium; format: in vivo
Procedure: as §2, §3, §4
The dog's brains were scanned by CAT in sequential slices in 3 mm. increments. […] The arrow indicates the regions where contrast was observed.

brain [7] = settings: 0.5 mg FDG injection, cited from earlier work

Molecule: OC[C@H]1OC(O)C[C@@H](O)[C@@H]1O (stereo partly drawn) [2-deoxyglucose]
- crossing of blood/brain barrier [1]: cross the blood/brain barrier by the same saturable carrier as glucose

Molecule: O[C@@H]1[C@@H](O)[C@@H](O)O[C@H](CI)[C@@H]1O [6-IG, 6-iodo-6-deoxy-α-D-galactopyranose]
- obvious side effects [2]: do not produce any obvious side effects
- immediate effects of injection on the animals ([3]; 20 g male mice, i.v., max 2.11 g 6-IG/kg or equivalent amount of α-D-galactopyranose): no apparent immediate effects on the animals
- gross findings at autopsy ([3]; mice, three days post-injection, i.v., max 2.11 g 6-IG/kg): no gross findings
- estimated total brain concentration as percent of initial blood concentration (brain [4]; calculated as 20%×0.31): ~6%
- concentration (brain [4]; initial blood concentration 10^-2 M, read-out: estimated final brain concentration): ~600 µM
- apparent side effects ([5]; dogs, i.v., initial blood concentration 10^-2 M): Neither the control nor the iodinated injection medium had any apparent side effects
- contrast accumulation in the cortical area, posterior portion of frontal lobe (brain [6]; 1 hour post-injection, initial blood concentration 10^-2 M): accumulated in the cortical area of the posterior portion of the frontal lobe within one hour after injection; also recorded: beginning of accumulation as early as 1 hour post-injection
- contrast in pareital region and other areas of the brain (brain [6]; 9 days post-injection (FIG. 3)): no contrast is seen in the pareital lobe intracellular section shown in FIG. 3, nor in any other areas of the brain that were scanned; also recorded: no contrast medium has accumulated in that section of the brain
- contrast accumulation in the cortical area, posterior portion of frontal lobe (brain [6]; 9 days post-injection, initial blood concentration 10^-2 M): greater contrast is seen in the same region 9 days post-injection; also recorded: greater contrast in the same cortical regions
- clearance of contrast medium (brain [6]; 33 days post-injection, initial blood concentration 10^-2 M): cleared completely
- accumulation and clearance compared to FDG (PET) (brain [6]; compared to Fluorodeoxyglucose): relatively slower
- time of peak concentration (brain [6]; dog brain, between 1 hour and 9 days post-injection): some time inbetween
- clearance of the compound (brain [6]; dog brain, present at nine days post injection): relatively slow
- distribution of accumulation in brain (brain [6]; general statement on accumulation in dog brain): accumulates in areas of the brain that are metabolically hyperactive in response to normal stimuli
- distribution of accumulation after digitization (brain [6]; slice of FIG. 2C, 9 days post-injection, background subtracted): generally greatest in the cortical region

Molecule: OC[C@H]1O[C@H](O)[C@H](O)[C@@H](O)[C@H]1O [α-D-galactopyranose, reference compound]
- uptake relative to 2-deoxyglucose [1]: 31%
- crossing of blood/brain barrier ([1]; same saturable carrier as glucose): cross the blood/brain barrier by the same saturable carrier as glucose
- gross findings at autopsy ([3]; in vivo, iv): no gross findings
- immediate effects of injection on the animals ([3]; in vivo, iv): no apparent immediate effects on the animals
- apparent side effects ([5]; dog, in vivo, iv): Neither the control nor the iodinated injection medium had any apparent side effects

Molecule: Fluorodeoxyglucose [FDG]
- brain concentration of FDG (brain [7]; after 40 minutes accumulation time): 25 ng/cc
- brain concentration as percent of initial blood concentration (brain [7]; human, 40 min): 20%
- concentration (brain [7]; read-out: molar brain concentration of FDG, after 40 minutes, brain cell volume 1 L): 138 nM
